Measurements published in publication PMC7692634, “Structural Basis of Inhibition of the Pioneer Transcription Factor NF-Y by Suramin” (Cells, 2020).

How the values were obtained:
[1] = target: T1, NF-Yd (NF-YB/NF-YC histone fold domain dimer, YB/YCmd) (Homo sapiens, UniProt P25208+Q13952); experiment: ITC; assay type: binding
T1 construct: gene NFYB; minimal histone fold domains, NF-YB aa 49-141 with N-terminal 6His (thrombin-cleaved), NF-YC aa 27-120; coexpressed in E. coli BL21(DE3)
T1 sequence (P25208 51-143): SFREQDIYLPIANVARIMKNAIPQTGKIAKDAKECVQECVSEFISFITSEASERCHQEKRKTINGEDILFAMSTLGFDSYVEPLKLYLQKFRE
T1 sequence (Q13952 27-120): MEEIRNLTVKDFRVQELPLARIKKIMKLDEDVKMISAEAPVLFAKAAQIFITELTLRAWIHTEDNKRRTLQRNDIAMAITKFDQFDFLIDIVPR

[2] = target: T2, NF-Yt (NF-Ymd, minimal domain NF-Y trimer) (Homo sapiens, UniProt P25208+Q13952); experiment: STD NMR; EMSA inhibition of DNA binding; details: STD NMR: 25 µM protein, 1 mM suramin, 10 mM Tris-DCl pH 8, 150 mM NaCl, 25 °C; EMSA: 40 nM protein, 20 nM HSP70 CCAAT probe, pH 7.5, 30 °C
T2 construct: gene NFYB; minimal domains NF-YB 49-141, NF-YC 27-120, NF-YA 262-332 with C-terminal 6His (thrombin-cleaved); coexpressed in E. coli BL21(DE3); with Nuclear transcription factor Y subunit alpha

[3] = target: T3, NF-Yd/YA (reconstituted NF-Y trimer with YA3) (Homo sapiens, UniProt P25208+Q13952); experiment: EMSA inhibition of DNA binding; details: 40 nM protein, 20 nM Cy5 HSP70 CCAAT probe, pH 7.5, 5 mM MgCl2, 30 °C; suramin 50 and 100 µM
T3 construct: gene NFYB; NF-Yd (NF-YB 49-141/NF-YC 27-120, His-tag cut) mixed with separately purified NF-YA aa 239-347, C-terminal His-tag; E. coli BL21(DE3); with Nuclear transcription factor Y subunit alpha
T3 sequence (P23511 239-347 partner, one chain of several): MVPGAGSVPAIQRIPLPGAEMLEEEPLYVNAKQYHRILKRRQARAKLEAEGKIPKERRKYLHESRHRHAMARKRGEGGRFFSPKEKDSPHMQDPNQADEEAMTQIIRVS

T2 sequence (P23511 262-332 partner, one chain of several): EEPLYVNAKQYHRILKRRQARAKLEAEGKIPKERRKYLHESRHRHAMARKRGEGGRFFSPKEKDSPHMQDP

Kd [1]: 2900 ± 700 nM
SMILES: Cc1ccc(C(=O)Nc2ccc(S(=O)(=O)O)c3cc(S(=O)(=O)O)cc(S(=O)(=O)O)c23)cc1NC(=O)c1cccc(NC(=O)Nc2cccc(C(=O)Nc3cc(C(=O)Nc4ccc(S(=O)(=O)O)c5cc(S(=O)(=O)O)cc(S(=O)(=O)O)c45)ccc3C)c2)c1 [suramin]
STD NMR; EMSA inhibition of DNA binding [2]: demonstrates the interaction of the compound with both the dimer and the trimer | EMSA inhibition of DNA binding [3]: suramin addition substantially decreased the formation of NF-Y-bound DNA complexes, in a dose-dependent manner
